These results are taken from US11478470B2, “Combination product of Bcl-2 inhibitor or Bcl-2/Bcl-xL dual inhibitor and BTK inhibitor and use thereof in the prevention and/or treatment of diseases” (ASCENTAGE PHARMA (SUZHOU) CO., LTD., priority 2018, dated 2022).

SMILES strings stand for the structures. Where only a bound is given, the exact number is not on record here.

One test deals with DOHH2^R-ibrutinib cells. The test can be described thus: CellTiter-Glo cell viability assay, ibrutinib-resistant DOHH2R-ibrutinib cells. The class given is cell-based, human. Particulars: for IC50: Homo sapiens, ibrutinib-resistant cells, CellTiter-Glo, 24 or 72 hours, read-out: IC50 value to the DOHH2^R-ibrutinib cell line (cell viability). The procedure:
(§1) DOHH2 cells were cultured in RPM11640 medium containing 10% calf serum, 1% antibiotics and 5 ug/ml verapamil (calcium ion channel blocker), and ibrutinib was added at a gradually increasing concentration from 0.5 uM to 10 uM. After exposure for about three months, a ibrutinib-resistant DOHH2R cell line was obtained, also referred to as DOHH2^R-ibrutinib. After DOHH2^R-ibrutinib was stabilized, it was continued to be cultured in culture medium containing 10 uM Ibrutinib to maintain its resistance. Ibrutinib is absent only in the susceptibility test with Compound 6 or 88.
(§2) Relative light units (RLU) were determined by a microplate reader (BioTek, Synergy H1 MF, USA). […] IC50 values were calculated using GraphPad Prism. IC50 was expressed as mean±standard deviation (SD).

The next test has as its system DOHH2 cells. As to the kind of experiment: CellTiter-Glo cell viability assay, DOHH2 cells (Example 11). Particulars: Homo sapiens, DOHH-2, DOHH2 parental cells. The class given is cell-based. The procedure: as §1, §2
In test [1] the test system is human DOHH2 (FL) xenograft tumor. The format is in vivo. Particulars: Cpd. 6 50 mg/kg, Ibrutinib 20 mg/kg. The procedure: (§3) . All animal experiments were strictly in accordance with the laboratory animal use and management practices of GenePharma Co., Ltd. and Ascentage Pharma Group Co., Ltd. The calculation of relevant parameters referred to the Chinese CFDA “Guidelines for Non-Clinical Research Techniques of Cytotoxic Antitumor Drugs”.
(§4) Animal body weight and tumor size were measured twice a week during the experiment. Tumor growth was observed periodically, and the animals were randomly divided into groups according to tumor size and mouse body weight when the tumors grew to an average volume of 100-200 mm^3. The conditions and death of the animals were observed every day. Routine monitoring included the effects of tumor growth and treatment on normal animal behaviors, including activity, feeding and drinking situations, weight gain or loss, eyes, coat and other abnormalities in the experimental animals. The deaths and clinical symptoms observed during the experiment were recorded in the raw data. The entire operations of administration, measurement of mouse body weight and tumor volume were performed in a clean bench. Plasma and tumor tissues were collected, weighed and photographed after the end of the last administration according to the experimental protocol. Plasma and tumor samples were frozen and stored at −80° C.
(§5) Tumor volume (TV) was calculated as: TV=a×b^2/2, in which a and b represented the length and width of the tumor as measured, respectively. The relative tumor volume (RTV) was calculated as: RTV=Vt/V1, in which V1 was the tumor volume at the time of grouping and administration, and Vt was the tumor volume measured on a day after administration. The evaluation index of anti-tumor activity was the relative tumor proliferation rate T/C (%), which was calculated as: relative tumor proliferation rate T/C (%)=(TRTV/CRTV)×100%, in which TRTV was the RTV of the treatment group, CRTV was the RTV of the vehicle control group; tumor remission rate (%) was calculated as: (the number of SD (stable disease), PR (tumor partial regression) and CR (tumor complete regression) in the tumor-bearing mice after treatment)/the total number of mice in the group×100%. Change of body weight %=(measured body weight−body weight at the time of grouping)/body weight at the time of grouping×100%.
(§6) ; The synergistic analysis was performed by the following formula: synergy factor=((A/C)×(B/C))/(AB/C); A=RTV value of the group administered with A only; B=RTV value of the group administered with B only; C=RTV value of the vehicle control group; AB=RTV value of the group administered with A and B in combination (Clarke R. Issues in experimental design and endpoint analysis in the study of experimental cytotoxic agents in vivo in breast cancer and other models [J]. Breast Cancer Research & Treatment, 1997, 46(2-3): 255-278). If the synergy factor was >1, there was a synergistic effect; if the synergistic factor=1, there was an additive effect; if the synergistic factor <1, there was an antagonistic effect.

For test [2], the system named is human OCI-LY1 (DLBCL) xenograft tumor. The format is in vivo. Particulars: Cpd. 6 50 mg/kg, Ibrutinib 20 mg/kg, day 36. The procedure:
as §3, §4, §5, §6

A further test concerns DOHH-2 cells. As to the kind of experiment: Flow cytometry analysis of apoptosis (Annexin V/PI), DOHH-2. Particulars: DOHH-2, 24 hours; 10 nM Compound 6, 100 nM ibrutinib, or the combination. The class given is cell-based, human. The procedure: (§7) Apoptosis was evaluated with AnnexinV/propidium iodide (PI) dyes (BD Biosciences, Cat. 556547) according to manufacturer's instructions. Briefly, cells were seeded in 24-well plates at a density 2×10^5 cells/well, and treated with Compound 6 and/or ibrutinib (Selleck) to induce apoptosis. After 24 h, cells were collected, washed twice with PBS (pH 7.4), and stained with Annexin-V and propidium iodide (PI) for 15 mins. Stained samples were analyzed using flow cytometer Attune NxT (Life technologies).
(§8) In the experiment, the combination treatment with Compound 6 and ibrutinib was evaluated for its ability of apoptosis induction on DOHH2 and OCI-LY1 cells by co-staining of Annexin-V/Propidium iodide (PI) followed by flow cytometry analysis (FIG. 7A). […] Flow cytometry analysis of apoptotic cells by Annexin V and propidium iodide (PI) co-staining in DOHH-2 and OCI-LY1 cell lines treated with 10 nM (DOHH-2) or 15 nM (OCI-LY1) Compound 6, 100 nM (DOHH-2) or 150 nM (OCI-LY1) ibrutinib, or the combination for 24 hours. Three independent experiments were conducted and the representative results are shown (7A). The percentages of Annexin V-positive, PI-positive, or double positive DOHH-2 (7B) and OCI-LY1 (7C) cells are plotted as bar charts and shown as mean±SEM (n=3) (**p<0.01, ***p<0.001).

The subject of test [3] is human DOHH2 (FL) xenograft tumor. The class given is in vivo. Particulars: Cpd. 6 100 mg/kg, Ibrutinib 25 mg/kg. The procedure: (§9) All animal experiments were strictly in accordance with the laboratory animal use and management practices of GenePharma Co., Ltd. and Ascentage Pharma Group Co., Ltd. The calculation of relevant parameters referred to the Chinese CFDA “Guidelines for Non-Clinical Research Techniques of Cytotoxic Antitumor Drugs”.
as §4
(§10) Tumor volume (TV) was calculated as: TV=a×b^2/2, in which a and b represented the length and width of the tumor as measured, respectively. The relative tumor volume (RTV) was calculated as: RTV=Vt/V1, in which V1 was the tumor volume at the time of grouping and administration, and Vt was the tumor volume measured on a day after administration. […] Change of body weight %=(measured body weight−body weight at the time of grouping)/body weight at the time of grouping×100%.
(§11) If the synergy factor was >1, there was a synergistic effect; if the synergistic factor=1, there was an additive effect; if the synergistic factor <1, there was an antagonistic effect.

The next test relates to OCI-LY1 cells. The test can be described thus: Flow cytometry analysis of apoptosis (Annexin V/PI), OCI-LY1. The class given is cell-based, human. Particulars: OCI-LY1, 24 hours; 15 nM Compound 6, 150 nM ibrutinib, or the combination. The procedure:
as §7, §8

The subject of test [4] is human OCI-LY1 (DLBCL) xenograft tumor. The format is in vivo. The procedure: as §9, §4, §10, §11
In short, when the average tumor volume reached approximately 90 mm^3, grouping and administration started. Ibrutinib was administered at a dose of 15 mg/kg, i.v., qd, from the day of grouping, for 3 weeks. […] On the 13th day after grouping, the administration was stopped and the observation period started.

The mark [5] stands for this setting: Cpd. 6 100 mg/kg p.o. qd, Ibrutinib 15 mg/kg i.v. qd, day 43.
Setting [6] is: Cpd. 6 100 mg/kg, Ibrutinib 15 mg/kg, including CR, PR and SD.
The mark [7] stands for this setting: Cpd. 6 100 mg/kg, Ibrutinib 15 mg/kg, mice per group.

In the case of `Cc1c(S(C)(=O)=O)c(-c2cc(F)cc(N3CCN(c4ccc(NS(=O)(=O)c5ccc(N[C@H](CCN6CCC(C(=O)O)CC6)CSc6ccccc6)c(S(=O)(=O)C(F)(F)F)c5)cc4)CC3)c2)c(-c2ccc(Cl)cc2)n1C(C)C` [Compound 88, (R)-1-(3-(4-(N-(4-(4-(3-(2-(4-chlorophenyl)-1-isopropyl-5-methyl-4-(methylsulfonyl)-1H-pyrrol-3-yl)-5-fluorophenyl)piperazin-1-yl)phenyl)-sulfamoyl)-2-(trifluoromethylsulfonyl)phenylamino)-4-(phenylthio)butyl)piperidine-4-carboxylic acid], in the test on DOHH2^R-ibrutinib cells (DOHH2^R-ibrutinib cells), the “time to cell death” value is at most 24 h. In addition, in the test on DOHH2^R-ibrutinib cells, the 50% inhibitory concentration (IC50) is 17 nM.
On to `CC1(C)CCC(CN2CCN(c3ccc(C(=O)NS(=O)(=O)c4ccc(NCC5CCOCC5)c([N+](=O)[O-])c4)c(Oc4cnc5[nH]ccc5c4)c3)CC2)=C(c2ccc(Cl)cc2)C1` [ABT-199, reference compound], for which the half-maximal inhibitory concentration (IC50) was 51.1 nM with DOHH2 cells and 1190 nM in the test with DOHH2^R-ibrutinib cells.
On to `C=CC(=O)N1CCC[C@@H](n2nc(-c3ccc(Oc4ccccc4)cc3)c3c(N)ncnc32)C1` [Ibrutinib, reference compound], for which, in test [1], the “RTV on day 35 after administration (mean ± standard error)” value was 11.4 ± 1.5 and the “T/C (%) on day 35 after administration” value worked out at 67.7%. The “RTV on day 36 after administration (mean ± standard error)” value in test [2] is on record as 20.5 ± 2.1. In addition, the “T/C on day 36 after administration” value in test [2] (given as fraction) is listed as 0.810. Moreover, the “apoptosis induction (Annexin V / PI positive cells)” value with DOHH-2 cells is on record as “limited apoptosis activity”. Moreover, the “TGI (%) on day 32 after administration” value in test [3] (TGI = 100 − T/C%) stood at 52%. In addition, in test [3] (day 32), the “RTV on day 32 after administration (mean ± standard error)” value was 6.1 ± 0.8 and the “T/C (%) on day 32 after administration” value was 48%. In addition, the “apoptosis induction (Annexin V / PI positive cells)” value with OCI-LY1 cells is listed as “limited apoptosis activity”. Besides, the IC50 with DOHH2 cells is 73.5 nM. In test [4] (setting [5]), the “RTV on the 43rd day after administration (mean ± standard error)” value is reported as 15.9 ± 7.63 and the “T/C (%) on day 43 after administration” value came to 58%. In test [4] (Cpd. 6 100 mg/kg, Ibrutinib 15 mg/kg, TGI = 100 − T/C%), the “TGI (%) on day 43 after administration” value was found to be 42%. Also, in test [4] (Cpd. 6 100 mg/kg, Ibrutinib 15 mg/kg, day 50), the “RTV on day 50 after administration (mean ± standard error)” value came out at 32.1 ± 1137. For the same molecule, in test [4] (setting [6]), the “remission rate % on day 43 after administration” value was “PR ( 0% )” and the “remission rate % on day 50 after administration” value is given as “( 0% )”. Besides, in test [4] (setting [7]), the “Tumor status on day 43 after administration: CR (tumor complete regression)” value is reported as 0/5 CR, 0/5; the “Tumor status on day 43 after administration: PR (tumor partial regression)” value is 0/5 CR, 0/5; the “Tumor status on day 50 after administration: CR” value is given as 0/5 CR,; the “Tumor status on day 50 after administration: PR” value is given as 0/5 PR. For the same molecule, in the test with DOHH2^R-ibrutinib cells, the “increase of IC50 in DOHH2^R-ibrutinib versus DOHH2 cells” value was 160 fold and the IC50 was determined as 12200 nM.
